Results from ChEMBL document CHEMBL5038618, “Discovery of PT-65 as a highly potent and selective Proteolysis-targeting chimera degrader of GSK3 for treating Alzheimer's disease” (Eur J Med Chem, 2021).
Calls of active or inactive are those of the source. No cut-off for these calls is given here.

Experiments:
[1] = system: SH-SY5Y; experiment: Induction of apoptosis in human SH-SY5Y cells assessed as live cells at 62.5 nM preincubated for 2 hrs followed by coincubation with Abeta42 and measured after 72 hrs by Annexin V-FITC/propidium iodide staining based flow cytometry (Rvb=94.8%); assay type: functional; conditions: time 74 hrs
[2] = system: SH-SY5Y; experiment: Induction of apoptosis in human SH-SY5Y cells assessed as late apoptotic cells at 125 nM preincubated for 2 hrs followed by coincubation with Abeta42 and measured after 72 hrs by Annexin V-FITC/propidium iodide staining based flow cytometry (Rvb=3.5%); assay type: functional; conditions: time 74 hrs
[3] = system: SH-SY5Y; experiment: Induction of apoptosis in human SH--SY5Y cells assessed as late apoptotic cells at 250 nM preincubated for 2 hrs followed by coincubation with Abeta42 and measured after 72 hrs by Annexin V-FITC/propidium iodide staining based flow cytometry (Rvb=3.5%); assay type: functional; conditions: time 74 hrs
[4] = system: SH-SY5Y; experiment: Effect on tau protein expression in human SH-SY5Y cells assessed as reduction on phosphorylated tau Ser404 residue level at 62.5 to 500 nM pretreated for 2 hrs followed by Abeta42 coincubation for 72 hrs by Westernblot analysis; assay type: functional, cell-based; conditions: dose 62.5-500 nM, time 74.0 hrs
[5] = system: Rattus norvegicus; experiment: Improvement in learning and spatial memory in okadaic acid induced Sprague-Dawley rat assessed as increase in time spent in target quadrant at 200 to 600 uM, iv measured after 6 days by Morris water maze test; assay type: functional, organism-based; conditions: dose 200-600 µM, time 6.0 day
[6] = Downregulation of GSK3beta expression in human SH-SY5Y cells accessed as fold change in GSK3beta expression at 1 uM measured after 4 hrs by proteomic analysis; assay type: functional
[7] = system: SH-SY5Y; experiment: Cytotoxicity against human SH-SY5Y cells assessed as cell viability upto 100 uM measured after 72 hrs by CCK8 assay; assay type: functional, cell-based; conditions: dose microM <=100, time 72.0 hrs
[8] = biological target: Glycogen synthase kinase-3 alpha (Homo sapiens) (UniProt P49840); experiment: Induction of GSK3alpha degradation in human SH-SY5Y cells assessed as maximum degradation at 1 uM measured after 9 hrs by western blot assay; assay type: cell-based
Chain of Glycogen synthase kinase-3 alpha (Homo sapiens) (P49840 2-483 limits assumed): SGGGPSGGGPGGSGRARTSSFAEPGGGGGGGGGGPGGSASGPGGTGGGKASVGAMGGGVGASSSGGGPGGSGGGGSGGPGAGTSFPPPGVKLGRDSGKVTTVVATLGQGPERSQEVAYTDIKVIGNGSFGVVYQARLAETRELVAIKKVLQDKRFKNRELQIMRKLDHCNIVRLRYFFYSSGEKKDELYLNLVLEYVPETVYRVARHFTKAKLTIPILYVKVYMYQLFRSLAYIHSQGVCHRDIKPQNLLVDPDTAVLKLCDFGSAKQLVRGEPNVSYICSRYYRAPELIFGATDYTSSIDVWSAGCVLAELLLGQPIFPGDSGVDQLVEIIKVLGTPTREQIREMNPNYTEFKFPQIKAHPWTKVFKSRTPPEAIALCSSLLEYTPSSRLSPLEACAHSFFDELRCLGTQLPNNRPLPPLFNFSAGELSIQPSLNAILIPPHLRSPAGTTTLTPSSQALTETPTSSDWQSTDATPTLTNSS

[9] = biological target: T1, Protein cereblon/Glycogen synthase kinase-3 alpha (Homo sapiens, UniProt P49840+Q96SW2); experiment: Protac activity at CRBN/GSK3alpha in human SH-SY5Y cells assessed as GSK3alpha degradation at 1 uM pretreated with MG-132 for 2 hrs followed by compound addition and measured after 24 hrs; assay type: cell-based
Target sequence in this assay (P49840 2-483 limits assumed): as above
Target sequence in this assay (Q96SW2 whole entry partner): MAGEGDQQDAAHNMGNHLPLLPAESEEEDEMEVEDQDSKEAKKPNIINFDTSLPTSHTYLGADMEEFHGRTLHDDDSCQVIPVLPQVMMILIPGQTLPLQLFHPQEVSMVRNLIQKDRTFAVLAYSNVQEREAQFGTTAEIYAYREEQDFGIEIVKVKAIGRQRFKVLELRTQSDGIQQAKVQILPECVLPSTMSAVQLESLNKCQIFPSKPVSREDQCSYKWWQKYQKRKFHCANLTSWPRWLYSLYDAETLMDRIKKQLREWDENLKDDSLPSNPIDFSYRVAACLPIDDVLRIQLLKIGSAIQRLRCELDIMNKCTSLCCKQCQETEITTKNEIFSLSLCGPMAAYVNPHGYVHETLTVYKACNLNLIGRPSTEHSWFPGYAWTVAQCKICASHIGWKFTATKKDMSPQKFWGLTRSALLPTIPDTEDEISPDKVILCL

[10] = biological target: T1, Protein cereblon/Glycogen synthase kinase-3 alpha; experiment: Protac activity at CRBN/GSK3alpha in human SH-SY5Y cells assessed as GSK3alpha degradation at 1 uM pretreated with pomalidomide for 2 hrs followed by compound addition and measured after 24 hrs; assay type: cell-based
Target sequence in this assay (P49840 2-483 limits assumed): as the sequence (P49840 2-483 limits assumed) above
Target sequence in this assay (Q96SW2 whole entry partner): as the sequence (Q96SW2 whole entry partner) above

[11] = system: Rattus norvegicus; experiment: Antialzheimer activity against okadaic acid induced Sprague-Dawley rat assessed as reduction in escape latency time to hidden platform at 200 to 600 uM, iv measured upto 5 days by Morris water maze test; assay type: functional, organism-based; conditions: dose 200-600 µM, time day <=5
[12] = biological target: T2, Protein cereblon/Glycogen synthase kinase-3 beta (Homo sapiens, UniProt P49841+Q96SW2); experiment: Protac activity at CRBN/GSK3beta in human SH-SY5Y cells assessed as induction of GSK3beta degradation at 1 uM measured after 24 hrs; assay type: cell-based
T2 sequence (P49841 whole entry, looked up): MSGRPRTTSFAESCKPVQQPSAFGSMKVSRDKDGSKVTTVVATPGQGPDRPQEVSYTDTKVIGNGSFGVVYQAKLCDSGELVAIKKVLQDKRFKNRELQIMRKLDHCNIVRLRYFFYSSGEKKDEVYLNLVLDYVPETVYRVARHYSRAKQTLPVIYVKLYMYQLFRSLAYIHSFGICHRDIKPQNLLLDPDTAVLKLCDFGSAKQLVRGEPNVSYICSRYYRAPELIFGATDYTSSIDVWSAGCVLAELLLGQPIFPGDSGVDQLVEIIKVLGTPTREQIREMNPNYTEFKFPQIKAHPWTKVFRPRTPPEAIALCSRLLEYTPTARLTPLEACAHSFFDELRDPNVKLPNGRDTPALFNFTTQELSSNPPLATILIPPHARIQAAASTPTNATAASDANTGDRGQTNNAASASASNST
T2 sequence (Q96SW2 whole entry, looked up): as the sequence (Q96SW2 whole entry partner) above

[13] = biological target: Glycogen synthase kinase-3 alpha (Homo sapiens) (UniProt P49840); experiment: Induction of GSK3alpha degradation in human SH-SY5Y cells assessed as recovery of GSK3alpha protein pretreated for 12 hrs followed by compound washout and measured upto 36 hrs by western blot assay; assay type: cell-based; conditions: time 48.0 hrs
[14] = biological target: hERG (KCNH2) (Homo sapiens, UniProt Q12809); experiment: Inhibition of hERG expressed in CHO cells at 40 uM by whole cell patch clamp assay; assay type: cell-based; conditions: CHO cells that express hERG
Chain of hERG (KCNH2) (Q12809 whole entry): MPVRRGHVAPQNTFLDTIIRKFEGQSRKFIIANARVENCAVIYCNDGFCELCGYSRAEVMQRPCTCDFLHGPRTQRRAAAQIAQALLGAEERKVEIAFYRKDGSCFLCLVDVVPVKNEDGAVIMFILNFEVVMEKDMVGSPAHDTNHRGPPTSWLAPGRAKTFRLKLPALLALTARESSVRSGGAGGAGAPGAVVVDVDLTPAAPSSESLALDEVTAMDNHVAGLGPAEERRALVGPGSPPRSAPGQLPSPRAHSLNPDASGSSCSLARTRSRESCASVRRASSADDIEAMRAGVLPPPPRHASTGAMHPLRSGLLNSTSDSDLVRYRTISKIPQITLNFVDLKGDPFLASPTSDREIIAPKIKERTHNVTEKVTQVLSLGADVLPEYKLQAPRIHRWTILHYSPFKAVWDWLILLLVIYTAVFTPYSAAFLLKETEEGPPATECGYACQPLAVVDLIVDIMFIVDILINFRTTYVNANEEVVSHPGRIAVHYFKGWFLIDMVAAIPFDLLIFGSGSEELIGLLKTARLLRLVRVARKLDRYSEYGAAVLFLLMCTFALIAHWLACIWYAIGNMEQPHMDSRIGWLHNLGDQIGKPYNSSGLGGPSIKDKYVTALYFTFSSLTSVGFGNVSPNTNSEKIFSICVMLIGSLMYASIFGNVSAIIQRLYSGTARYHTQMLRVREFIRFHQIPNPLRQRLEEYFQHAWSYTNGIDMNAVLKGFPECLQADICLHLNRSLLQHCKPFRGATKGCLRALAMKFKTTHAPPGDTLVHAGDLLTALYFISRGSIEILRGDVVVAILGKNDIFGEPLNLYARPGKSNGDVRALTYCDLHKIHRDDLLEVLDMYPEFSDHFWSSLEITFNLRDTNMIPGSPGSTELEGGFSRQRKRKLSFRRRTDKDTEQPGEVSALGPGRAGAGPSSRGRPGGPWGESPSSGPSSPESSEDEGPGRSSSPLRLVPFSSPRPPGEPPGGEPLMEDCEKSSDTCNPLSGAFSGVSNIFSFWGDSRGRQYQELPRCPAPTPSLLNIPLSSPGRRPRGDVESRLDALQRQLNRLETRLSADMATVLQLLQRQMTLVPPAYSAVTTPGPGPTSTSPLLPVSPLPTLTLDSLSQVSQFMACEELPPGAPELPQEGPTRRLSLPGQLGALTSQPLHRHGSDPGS

[15] = system: SH-SY5Y; experiment: Induction of apoptosis in human SH-SY5Y cells assessed as necrotic cells at 62.5 nM preincubated for 2 hrs followed by coincubation with Abeta42 and measured after 72 hrs by Annexin V-FITC/propidium iodide staining based flow cytometry (Rvb=0.7%); assay type: functional; conditions: time 74 hrs
[16] = biological target: Glycogen synthase kinase-3 beta (Homo sapiens, UniProt P49841); experiment: Binding affinity to recombinant GSK3beta (unknown origin) assessed as dissociation […] constant upto 0.00975 uM by SPR analysis
Chain of Glycogen synthase kinase-3 beta (P49841 whole entry): as the sequence (P49841 whole entry, looked up) above

[17] = biological target: T1, Protein cereblon/Glycogen synthase kinase-3 alpha; experiment: Protac activity at CRBN/GSK3alpha in human SH-SY5Y cells assessed as induction of GSK3alpha protein degradation at 1 uM measured after 24 hrs; assay type: cell-based
Target sequence in this assay (P49840 2-483 limits assumed): as the sequence (P49840 2-483 limits assumed) above
Target sequence in this assay (Q96SW2 whole entry partner): as the sequence (Q96SW2 whole entry partner) above

[18] = system: Rattus norvegicus; experiment: Antialzheimer activity against hippocampal tissue of okadaic acid induced Sprague-Dawley rat assessed as reduction on tau protein level at 200 to 600 uM, iv by immunohistochemical staining based analysis; assay type: functional, organism-based; conditions: Hippocampus, dose 200-600 µM
[19] = system: SH-SY5Y; experiment: Induction of apoptosis in human SH-SY5Y cells assessed as late apoptotic cells at 62.5 nM preincubated for 2 hrs followed by coincubation with Abeta42 and measured after 72 hrs by Annexin V-FITC/propidium iodide staining based flow cytometry (Rvb=3.5%); assay type: functional; conditions: time 74 hrs
[20] = system: SH-SY5Y; experiment: Induction of GSK3beta degradation in human SH-SY5Y cells assessed as recovery of GSK3beta protein pretreated for 12 hrs followed by compound washout and measured upto 36 hrs by western blot assay; assay type: cell-based; conditions: time 48.0 hrs
[21] = system: SH-SY5Y; experiment: Induction of apoptosis in human SH-SY5Y cells assessed as early apoptotic cells at 62.5 nM preincubated for 2 hrs followed by coincubation with Abeta42 and measured after 72 hrs by Annexin V-FITC/propidium iodide staining based flow cytometry (Rvb=1%); assay type: functional; conditions: time 74 hrs
[22] = system: Rattus norvegicus; experiment: Antialzheimer activity against hippocampal tissue of okadaic acid induced Sprague-Dawley rat assessed as reduction on GSK3alpha protein level at 200 to 600 uM, iv by western blot assay; assay type: functional, organism-based; conditions: Hippocampus, dose 200-600 µM
[23] = biological target: T2, Protein cereblon/Glycogen synthase kinase-3 beta; experiment: Protac activity at CRBN/GSK3beta in human SH-SY5Y cells assessed as GSK3beta degradation at 1 uM pretreated with pomalidomide for 2 hrs followed by compound addition and measured after 24 hrs; assay type: cell-based
[24] = system: SH-SY5Y; experiment: Effect on tau protein expression in human SH-SY5Y cells assessed as reduction on phosphorylated tau Ser396 residue level at 62.5 to 500 nM pretreated for 2 hrs followed by Abeta42 coincubation for 72 hrs by Westernblot analysis; assay type: functional, cell-based; conditions: dose 62.5-500 nM, time 74.0 hrs
[25] = system: Rattus norvegicus; experiment: Antialzheimer activity against hippocampal tissue of okadaic acid induced Sprague-Dawley rat assessed as reduction on GSK3beta protein level at 200 to 600 uM, iv by western blot assay; assay type: functional, organism-based; conditions: Hippocampus, dose 200-600 µM
[26] = Downregulation of GSK3alpha expression in human SH-SY5Y cells accessed as fold change in GSK3alpha expression at 1 uM measured after 4 hrs by proteomic analysis; assay type: functional
[27] = system: SH-SY5Y; experiment: Induction of apoptosis in human SH-SY5Y cells assessed as early apoptotic cells at 125 nM preincubated for 2 hrs followed by coincubation with Abeta42 and measured after 72 hrs by Annexin V-FITC/propidium iodide staining based flow cytometry (Rvb=1%); assay type: functional; conditions: time 74 hrs
[28] = system: SH-SY5Y; experiment: Effect on tau protein expression in human SH-SY5Y cells assessed as reduction on phosphorylated tau threonine205 residue level at 62.5 to 500 nM pretreated for 2 hrs followed by Abeta42 coincubation for 72 hrs by Westernblot analysis; assay type: functional, cell-based; conditions: dose 62.5-500 nM, time 74.0 hrs
[29] = biological target: T1, Protein cereblon/Glycogen synthase kinase-3 alpha; experiment: Protac activity at CRBN/GSK3alpha in human SH-SY5Y cells assessed as induction of GSK3alpha protein degradation measured after 24 hrs; assay type: cell-based
Target sequence in this assay (P49840 whole entry): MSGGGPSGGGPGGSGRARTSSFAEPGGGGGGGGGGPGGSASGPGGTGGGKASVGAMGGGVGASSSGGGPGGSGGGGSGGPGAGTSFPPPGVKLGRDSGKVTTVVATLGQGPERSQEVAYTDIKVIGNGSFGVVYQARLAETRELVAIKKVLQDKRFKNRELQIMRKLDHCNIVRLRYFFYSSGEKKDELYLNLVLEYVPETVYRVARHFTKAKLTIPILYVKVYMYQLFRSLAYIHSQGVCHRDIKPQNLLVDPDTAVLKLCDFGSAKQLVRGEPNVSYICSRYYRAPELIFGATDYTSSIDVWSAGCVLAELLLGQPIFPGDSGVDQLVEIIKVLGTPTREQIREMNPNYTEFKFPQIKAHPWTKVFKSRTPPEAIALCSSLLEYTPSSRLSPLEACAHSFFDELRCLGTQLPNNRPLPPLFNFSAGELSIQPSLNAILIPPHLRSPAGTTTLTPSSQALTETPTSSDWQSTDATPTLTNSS
Target sequence in this assay (Q96SW2 whole entry): as the sequence (Q96SW2 whole entry partner) above

[30] = biological target: T1, Protein cereblon/Glycogen synthase kinase-3 alpha; experiment: Protac activity at CRBN/GSK3alpha in human SH-SY5Y cells assessed as induction of GSK3alpha degradation at 0.1 uM measured after 24 hrs; assay type: cell-based
Target sequence in this assay (P49840 2-483 limits assumed): as the sequence (P49840 2-483 limits assumed) above
Target sequence in this assay (Q96SW2 whole entry partner): as the sequence (Q96SW2 whole entry partner) above

[31] = biological target: T2, Protein cereblon/Glycogen synthase kinase-3 beta; experiment: Protac activity at CRBN/GSK3beta in human SH-SY5Y cells assessed as GSK3beta degradation at 1 uM pretreated with MG-132 for 2 hrs followed by compound addition and measured after 24 hrs; assay type: cell-based

Activity [8]: Active
Activity [9]: inactive
Activity [10]: inactive
Activity [12]: 90.8%
Activity [13]: Active
Kd [16]: 0.0253 s⁻¹
Activity [17]: 94.3%
Activity [23]: inactive
DC50 [29]: 28.3 nM
Activity [30]: 74.4%
Activity [31]: inactive
SMILES: Nc1ncc(-c2ccc(S(=O)(=O)N3CCN(CCCCc4cn(CCOCCOCCOCCOCCOCCNc5cccc6c5C(=O)N(C5CCC(=O)NC5=O)C6=O)nn4)CC3)cc2)nc1C(=O)Nc1cccnc1 (stereo unspecified)
Activity [1]: 79%
Activity [2]: 12.5%
Activity [3]: 6.5%
Activity [4]: Dose-Dependent Effect
Activity [5]: Active
fold change (FC) [6]: 0.33
Activity [7]: inactive
Activity [11]: inactive
inhibition at 40 µM [14]: 15.4%
Activity [15]: 6.7%
Activity [18]: Active
Activity [19]: 14.3%
Activity [20]: Active
Activity [21]: 1%
Activity [22]: Active
Activity [24]: Dose-Dependent Effect
Activity [25]: Active
fold change (FC) [26]: 0.35
Activity [27]: 1.2%
Activity [28]: Dose-Dependent Effect
